Source: patent publication US10336733B2, “Aryl acylsulfonamides as BLT1 antagonists” (Merck Sharp & Dohme Corp., priority 2015, dated 2019)

Target: human BLT1 receptor (Homo sapiens (Human), UniProt Q15722)
Experiment: BLT-1 cAMP Assay
Assay type: cell-based
Settings: antagonist mode; HEK293 cells recombinantly expressing human BLT1 receptor; forskolin 4 μM and LTB4 2 nM; cAMP detection
Description: The ability of compounds to antagonize the human BLT1 receptor was determined using a kit to measure changes in intracellular cyclic AMP levels (cAMP dynamic assay kit, Cisbio Cat. No. 62AM4PEC). HEK293 cells recombinantly expressing human BLT1 receptor, previously frozen in Recovery Medium (Life Technologies, Cat. No. 12648-010) were thawed and diluted into assay medium (HBSS (Hyclone SH 30268.01), 20 mM HEPES (Gibco 15630-106), 800 μM IBMX (Sigma I5879), 0.1% DTPA BSA (Perkin Elmer CR84-100)). The cell suspension was centrifuged at 200×g for 10 min and then resuspended in fresh assay medium to a density of 2.5×10^5 cells/mL. A Labcyte Echo 550 acoustic dispenser was used to transfer 25 nL of test compound dissolved in DMSO into the wells of a dry 384-well plate (Greiner 784075). All subsequent liquid additions were performed using a BIORAPTR (FRD; Beckman Coulter). Next, 5 μL of cell suspension was added and incubated for 20 min. at 37° C. and 5% CO2 in a humidified plastic tray. To test for agonist activity […] of assay buffer containing forskolin (Sigma F-6886. 4 μM for BLT1) was added and incubated for 30 minutes at 37° C. and 5% CO2 in a humidified plastic tray. To test for antagonist activity 5 μL of assay buffer containing forskolin (Sigma F-6886. 4 μM for BLT1) and either LTB4 (Sigma Aldrich L0517; 2 nM BLT1) was added and incubated for 30 minutes at 37° C. and 5% CO2 in a humidified plastic tray.
The levels of cAMP were detected using the CisBio kit following the manufacturer's instructions: cAMP-d2 vial was reconstituted with distilled water and then diluted accordingly with conjugate & lysis buffer. 5 μL of cAMP-d2 working solution was added to all of the wells of the assay plate. cAMP-Cryptate vial was reconstituted with distilled water and then diluted accordingly with conjugate & lysis buffer. 5 μL of cAMP-Cryptate working solution were added to the assay plate. The assay plate was shaken for 3 minutes and incubated at room temperature for 45 minutes, then read on Perkin Elmer Envision. cAMP standard curve and fit data were plotted using a 4 parameter dose response curve fitting algorithm to fit curve. A 4-parameter curve fit (Max, min, log EC50 and slope) was used to transform fluorescent 665 nm/615 nm ratio signal to cAMP concentration. After normalization to treated and untreated controls, the percent effect of signal at each compound concentration was calculated. The plot of percent effect versus the log of compound concentration was fit with a 4-parameter concentration response equation to calculate EC50 values. Compound concentrations tested were 10 000, 3 333, 1 111, 370.4, 123.4, 41.2, 13.7, 4.6, 1.5 and 0.5 nM with 0.25% residual DMSO.

Chain of human BLT1 receptor (Q15722 whole entry): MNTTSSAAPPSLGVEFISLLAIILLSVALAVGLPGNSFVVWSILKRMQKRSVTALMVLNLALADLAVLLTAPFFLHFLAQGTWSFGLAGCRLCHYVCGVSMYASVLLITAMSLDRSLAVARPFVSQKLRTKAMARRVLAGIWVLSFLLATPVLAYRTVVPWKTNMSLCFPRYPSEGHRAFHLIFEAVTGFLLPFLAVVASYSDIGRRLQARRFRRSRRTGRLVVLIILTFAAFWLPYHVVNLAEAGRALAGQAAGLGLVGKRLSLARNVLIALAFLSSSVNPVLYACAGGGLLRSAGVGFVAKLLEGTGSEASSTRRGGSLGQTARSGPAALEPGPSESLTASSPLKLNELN

Compound | EC50 [nM]
CC1(S(=O)(=O)NC(=O)c2ccccc2-c2ccc3c(c2)OC[C@@H](Cc2cscn2)[C@@H]3O)CC1 (single isomer, unassigned) [Example 26, 2-((3R, 4S or 3S, 4R)-4-Hydroxy-3-(thiazol-4-ylmethyl)chroman-7-yl)-N-((1-methylcyclopropyl)sulfonyl)benzamide] | 770
Cc1nnc(C[C@@H]2COc3cc(-c4ccccc4C(=O)NS(=O)(=O)C4(C)CC4)ccc3[C@H]2O)s1 (racemic) [Example 29, 2-((Rac-trans)-4-Hydroxy-3-((5-methyl-1,3,4-thiadiazol-2-yl)methyl)chroman-7-yl)-N-((1-methylcyclopropyl)sulfonyl)benzamide] | 740
CC(C)(C)S(=O)(=O)NC(=O)c1ccccc1-c1ccc2c(c1)OC[C@@H](Cc1cscn1)[C@@H]2O (single isomer, unassigned) [Example 33, N-(tert-Butylsulfonyl)-2-((3R,4S or 3S,4R)-4-hydroxy-3-(thiazol-4-ylmethyl)chroman-7-yl)benzamide] | 808
O=C(NS(=O)(=O)C1CC1)c1ccccc1-c1ccc2c(c1)OC[C@H](Cc1ccccc1)[C@H]2O (single isomer, unassigned) [Example 24, 2-((3S,4R or 3R,4S)-3-Benzyl-4-hydroxychroman-7-yl)-N-(cyclopropylsulfonyl)benzamide] | 17
CC(C)(C)S(=O)(=O)NC(=O)c1ccccc1-c1ccc2c(c1)OC[C@H](Cc1ccccn1)[C@H]2O (single isomer, unassigned) [Example 12, N-(tert-Butylsulfonyl)-2-((3S,4R or 3R,4S)-4-hydroxy-3-(pyridin-2-ylmethyl)chroman-7-yl)benzamide] | 17
CC1(S(=O)(=O)NC(=O)c2ccc(F)cc2-c2ccc3c(c2)OC[C@@H](Cc2ccccn2)[C@@H]3O)CC1 (single isomer, unassigned) [Example 10, 4-Fluoro-2-((3R,4S or 3S,4R)-4-hydroxy-3-(pyridin-2-ylmethyl)chroman-7-yl)-N-((1-methylcyclopropyl)sulfonyl)benzamide] | 870

Further lines, results first:

EC50 [nM] | Compound
11 | CC(C)(C)S(=O)(=O)NC(=O)c1ccccc1-c1ccc2c(c1)OC[C@@H](Cc1cscn1)[C@@H]2O (racemic) [Example 32, N-(tert-Butylsulfonyl)-2-((rac-trans)-4-hydroxy-3-(thiazol-4-ylmethyl)chroman-7-yl)benzamide]
4 | CC1(S(=O)(=O)NC(=O)c2ccc(F)cc2-c2ccc3c(c2)OC[C@H](Cc2ccccn2)[C@H]3O)CC1 (single isomer, unassigned) [Example 9, 4-Fluoro-2-((3S,4R or 3R,4S)-4-hydroxy-3-(pyridin-2-ylmethyl)chroman-7-yl)-N-((1-methylcyclopropyl)sulfonyl)benzamide]
1270 | CC1(S(=O)(=O)NC(=O)c2ccccc2-c2ccc3c(c2)OC[C@@H](Cc2ccccn2)[C@@H]3O)CC1 (single isomer, unassigned) [Example 7, 2-((3R,4S or 3S,4R)-4-Hydroxy-3-(pyridin-2-ylmethyl)chroman-7-yl)-N-((1-methylcyclopropyl)sulfonyl)benzamide]
1160 | CCn1nccc1C[C@@H]1COc2cc(-c3ccccc3C(=O)NS(=O)(=O)C(C)(C)C)ccc2[C@H]1O (single isomer, unassigned) [Example 38, N-(tert-Butylsulfonyl)-2-((3R,4S or 3S,4R)-3-((1-ethyl-1H-pyrazol-5-yl)methyl)-4-hydroxychroman-7-yl)benzamide]
37 | O=C(NS(=O)(=O)C(F)(F)F)c1ccc(F)cc1-c1ccc2c(c1)OC[C@H](Cc1ccc(-c3ccccc3)cc1)[C@@H]2O (racemic) [Example 39, 2-((Rac-cis)-3-([1,1′-Biphenyl]-4-ylmethyl)-4-hydroxychroman-7-yl)-4-fluoro-N-((trifluoromethyl)sulfonyl)benzamide]
